Experimental data: the NIST ThermoML archive (doi:10.1007/s10765-009-0593-3)

Experiment: xn = mol fraction of the nth substance listed
Conditions: 101 kPa, Liquid; for speed of sound: Pulse-echo method

CCCOCC(C)OCC(C)O (stereo not given) [1-(1-methyl-2-propoxyethoxy)-2-propanol] + CCCCNCCCC
Conditions	mass density, 288.15 K [kg/m3]	mass density, 293.15 K [kg/m3]	mass density, 298.15 K [kg/m3]	mass density, 303.15 K [kg/m3]	mass density, 308.15 K [kg/m3]	speed of sound, 288.15 K [m/s]	speed of sound, 293.15 K [m/s]	speed of sound, 298.15 K [m/s]	speed of sound, 303.15 K [m/s]	speed of sound, 308.15 K [m/s]
x1 = 0.123	792.458	788.243	783.999	779.716	775.539	1291.2	1271.6	1252	1232.1	1212.2
x1 = 0.1582	798.993	794.736	790.406	786.126	781.949	1293.2	1273.2	1253.7	1233.9	1214
x1 = 0.1913	804.954	800.654	796.281	791.94	787.756	1294.9	1274.7	1255.1	1235.5	1215.5
x1 = 0.2541	815.956	811.61	807.16	802.761	798.492	1297.6	1277.1	1257.5	1238.1	1218.1
x1 = 0.3195	827.1	822.71	818.293	813.903	809.461	1299.8	1279.3	1259.6	1240.4	1220.4
x1 = 0.3623	834.198	829.803	825.41	821.074	816.52	1300.9	1280.5	1260.8	1241.7	1221.7
x1 = 0.4155	842.79	838.381	834.053	829.782	825.107	1302	1281.8	1262	1243	1223.1
x1 = 0.4543	848.877	844.447	840.151	835.948	831.19	1302.6	1282.7	1262.9	1243.9	1223.9
x1 = 0.4974	855.422	850.98	846.721	842.533	837.752	1303.2	1283.5	1263.7	1244.7	1224.7
x1 = 0.5491	863.031	858.573	854.308	850.092	845.325	1303.6	1284.3	1264.5	1245.6	1225.6
x1 = 0.6027	870.648	866.201	861.902	857.606	852.894	1304	1285.1	1265.2	1246.4	1226.4
x1 = 0.6687	879.855	875.389	871.011	866.586	861.99	1304.3	1285.8	1266	1247.1	1227.2
x1 = 0.6962	883.669	879.204	874.806	870.321	865.762	1304.4	1286	1266.3	1247.4	1227.5
x1 = 0.7504	891.256	886.786	882.325	877.785	873.301	1304.6	1286.4	1266.8	1248	1228
x1 = 0.7997	898.225	893.775	889.311	884.771	880.284	1304.8	1286.7	1267.3	1248.4	1228.5
x1 = 0.8657	907.649	903.208	898.805	894.377	889.838	1305.3	1287	1267.9	1249	1229.1
x1 = 0.8963	911.923	907.504	903.128	898.789	894.205	1305.5	1287.2	1268.2	1249.3	1229.4
x1 = 0.9589	920.017	915.65	911.3	907.024	902.428	1306.3	1287.4	1268.8	1250	1230
